Experiment: gradient 5% acetonitrile 3 min, to 50% in 2 min, to 85% in 15 min, held 3 min, 100 µL/min
Settings: column: Zorbax Extend-C18 2.1 x 50 mm; eluents: water / acetonitrile, 0.1% formic acid
Outline: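 Over 3 months, pure standards in mixtures of ~100 molecules were run by HPLC coupled to a quadrupole time-of-flight mass spectrometer in positive and negative ionization mode. The column was a Zorbax Extend-C18 (2.1 × 50 mm, 1.8 μm) at 100 μL/min, eluted with water and acetonitrile each holding 0.1% formic acid, with 40 μL dead and 900 μL dwell volumes. Retention time was determined from adduct peaks chosen by software and checked manually.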
Work on `Cc1nc(-c2nc(-c3cccs3)cs2)cn1CC(=O)NCc1ccc(F)cc1` yielded an RP-LC retention time of 789 s. `Cn1c(=O)n(CC(=O)Nc2cccc(Cl)c2)c(=O)c2cnc(-c3ccccc3)nc21` gave an RP-LC retention time of 1050 s. For `CCOc1ccc(-c2ccc(=O)n(CCc3nc(-c4ccc(F)cc4)no3)n2)cc1`, the RP-LC retention time was 815 s. `COC(=O)c1cc(OC)c(OC)cc1NC(=O)CCc1ccc(C)o1` gave an RP-LC retention time of 919 s. `COc1ccc(S(=O)(=O)N2C[C@@H](F)C[C@H]2C(=O)N2CCc3ccccc3C2)cc1` gave an RP-LC retention time of 877 s. For `CCn1c(SCC(=O)Nc2ccc3c(c2)OCO3)nnc1-c1cn(C)nc1-c1ccc(Cl)cc1`, the RP-LC retention time was 819 s. For `CC1=NS(=O)(=O)N(Cc2ccccc2)C=C1C(=O)OCc1nc(-c2ccc(C)cc2)no1`, the RP-LC retention time was 1110 s. `COc1ccc(-c2nc(-c3ccc4c(c3)oc(=O)n4C)no2)c(OC)c1` showed an RP-LC retention time of 959 s. With `CCOC(=O)C1CCC(CNC(=O)Nc2ccc(-c3nc(-c4cc(C)ccc4C)co3)cc2)CC1` (stereo not given) the RP-LC retention time was 1260 s. Molecule `COc1ccc(CNC(=O)NCCC(O)C(C)(C)C)cc1` (stereo not given) has an RP-LC retention time of 678 s. With `CCCN1CCC[C@@H](c2cccc(O)c2)C1` the RP-LC retention time was 596 s. Work on `COCCNC(=O)N1CCC(c2nnc(C(F)(F)F)o2)CC1` yielded an RP-LC retention time of 616 s. `COc1ccc(-c2nnc(Cc3nc(-c4ccc(SC)cc4)no3)o2)cc1` showed an RP-LC retention time of 1040 s. In the case of `CN1CC[C@@H](c2ccc(F)cc2)[C@H](COc2ccc3c(c2)OCO3)C1`, the RP-LC retention time is reported as 766 s. Work on `Cc1ccccc1-c1noc(C2CCCN2S(=O)(=O)c2ccc(Cl)cc2C)n1` (stereo not given) yielded an RP-LC retention time of 1290 s. `CC(C)CNC(=O)c1ccc(-c2nc3cccnc3n2C2CCCCC2)cc1` showed an RP-LC retention time of 926 s. `CCC(C(=O)NCCCN1CCCC1)n1nc(C)c2sc3ccccc3c2c1=O` (stereo not given) showed an RP-LC retention time of 669 s. Molecule `CCCc1c(C(=O)O)nnn1-c1cc(C)ccc1F` has an RP-LC retention time of 787 s. Molecule `CC1CCN(C(=O)Cc2nnc3cc(-c4nc(C5CC5)no4)ccn23)CC1` has an RP-LC retention time of 759 s. For `CCCCOc1ccc(CNC(=O)C2CCCN(c3nccc(C)n3)C2)cc1` (stereo not given), the RP-LC retention time was 930 s. `Cc1ncc2c(n1)C[C@@H]1CC[C@H]2N1S(=O)(=O)c1ccc2c(c1)C(C)(C)C(=O)N2` gave an RP-LC retention time of 636 s. In the case of `Cc1noc(C2CN(C(=O)Cc3noc4ccccc34)C2)n1`, the RP-LC retention time is reported as 642 s. `CCc1ccc(-c2cc(C(N)=O)[nH]n2)cc1` showed an RP-LC retention time of 708 s. In the case of `COc1ccc(-c2noc(CSc3nccn3-c3ccc(C)cc3)n2)cc1`, the RP-LC retention time is reported as 926 s. Molecule `CCC(C)NS(=O)(=O)c1cc(-c2nc(C)cs2)n(C)c1C` (stereo not given) has an RP-LC retention time of 905 s. `Nc1n[nH]c(-c2ccccc2)n1` gave an RP-LC retention time of 619 s. `Cn1c(=O)c(=O)n(CC(=O)NCCc2ccco2)c2cccnc21` gave an RP-LC retention time of 646 s. `COc1ccc(N2CCN(c3cc(SCC(=O)NCc4ccco4)ncn3)CC2)cc1` showed an RP-LC retention time of 748 s. `Cc1cc(NC(C)C)n2nc(-c3ccc(C(C)(C)C)cc3)nc2n1` showed an RP-LC retention time of 988 s. With `COC(=O)C1=CN(c2cc(OC)cc(OC)c2)c2ccc(F)cc2S1(=O)=O` the RP-LC retention time was 908 s. Work on `Cc1cccc(-c2ncccc2CNS(=O)(=O)c2cccc(F)c2)c1` yielded an RP-LC retention time of 724 s. Molecule `CC(C)Cn1nc(CNC(=O)C2CCC2)c2ccccc21` has an RP-LC retention time of 872 s. `Cn1cc(S(=O)(=O)N2CCCC2)cc1C(=O)N1CCN(c2ccccn2)CC1` gave an RP-LC retention time of 594 s. Molecule `CCOc1cccc(-c2noc(CCn3nc(-c4ccc(Cl)cc4)ccc3=O)n2)c1` has an RP-LC retention time of 1130 s. Molecule `O=C(CCc1c(-c2ccc(Cl)cc2)nc2ccccn12)NCc1cccnc1` has an RP-LC retention time of 570 s. Molecule `Cc1ccc(-c2noc(C3CCCN3S(=O)(=O)c3ccc(Br)s3)n2)cc1` (stereo not given) has an RP-LC retention time of 1220 s. For `CC(C)c1ccc(-c2ccnc3c(C(=O)NCCCc4ccco4)cnn23)cc1`, the RP-LC retention time was 1180 s. `Cc1ccccc1-c1nnc(CSc2nnc(NC(=O)Cc3ccccc3Cl)s2)o1` showed an RP-LC retention time of 977 s. `CCC(=O)N1CCc2c(C(=O)N3CCN(c4ccccc4OC)CC3)cccc21` gave an RP-LC retention time of 786 s. Molecule `Cc1ccc(C(=O)N2CCCCCCNC(=O)[C@@H]3CCCC[C@@H]32)s1` has an RP-LC retention time of 813 s. With `Cc1nc2cc(-c3noc(-c4cccc(Br)c4)n3)ccc2o1` the RP-LC retention time was 1270 s. Work on `O=C(CCc1c[nH]c2ccccc12)N1[C@H]2CC[C@@H]1c1cnc(-c3ccccc3)nc1C2` yielded an RP-LC retention time of 884 s. For `CN1C(=O)COc2cc(-c3noc(C(=O)NCc4cccnc4)n3)ccc21`, the RP-LC retention time was 613 s. Molecule `O=C(CN1C(=O)NC2(CCCCC2)C1=O)Nc1ccccc1` has an RP-LC retention time of 722 s. For `O=C(Nc1nnc(C2CC(=O)N(c3ccccc3)C2)o1)c1ccc(Br)cc1` (stereo not given), the RP-LC retention time was 766 s. Work on `Cc1ccc(-c2nnc(-c3cccc(S(=O)(=O)NCc4ccco4)c3)o2)cc1` yielded an RP-LC retention time of 968 s. With `CSc1ccc(CCNC(=O)CCCN2C(=O)CCn3nc(C)cc32)cc1` the RP-LC retention time was 690 s. For `COc1ccc(OC)c(NC(=O)N2CCN(c3cc(C)nc(N4CCCC4)n3)CC2)c1`, the RP-LC retention time was 676 s. For `COc1ccc(OC)c(CNC(=O)CCC(=O)N2CCCn3nc(C)cc32)c1`, the RP-LC retention time was 654 s. Work on `CCn1cnc2ccc(-c3noc(COc4ccc(F)cc4)n3)cc21` yielded an RP-LC retention time of 754 s. Work on `Cc1nc(-c2csc(S(=O)(=O)N3CCCC(C(=O)Nc4ccccc4)C3)c2)no1` (stereo not given) yielded an RP-LC retention time of 927 s. `COc1ccc(CNC(=O)N2CC(c3nc(C)no3)C3(CCOCC3)C2)cc1` (stereo not given) showed an RP-LC retention time of 680 s. Work on `O=C1/C(=C/c2ccc(Cl)c(Cl)c2)CN(C(=O)CCN2CCOCC2)C/C1=C\c1ccc(Cl)c(Cl)c1` yielded an RP-LC retention time of 881 s. `CNC(=O)C1CN(C(=O)Cc2ccc(C)cc2)CC12CCCC2` (stereo not given) gave an RP-LC retention time of 722 s. For `Cc1ccccc1CN1C(=O)CN(S(=O)(=O)c2ccccc2)CC1(C)C(=O)NCc1ccccc1` (stereo not given), the RP-LC retention time was 905 s. Work on `O=C(Cn1c(=O)c2cccn2c2ccc(F)cc21)N1CCN(c2ccccn2)CC1` yielded an RP-LC retention time of 605 s. For `Cn1cc(CCN2CCC(C(=O)NCC3CCCO3)CC2)c2cccnc21` (stereo not given), the RP-LC retention time was 562 s. Work on `CC(C)c1ccc(S(=O)(=O)N2CCc3c(c(CN4CCCC4)nn3C)C2)cc1` yielded an RP-LC retention time of 721 s. Work on `Cc1ccc(-c2csc(NC(=O)c3ccccc3Br)n2)cc1` yielded an RP-LC retention time of 1080 s. Molecule `CSc1ccc(NC(=O)NC2CCN(c3ccc(C)c(C)c3)C2=O)cc1` (stereo not given) has an RP-LC retention time of 897 s. In the case of `CCCc1nnsc1C(=O)NCCCC(=O)Nc1cccc2cccnc12`, the RP-LC retention time is reported as 791 s. For `CCn1nnc2cc(-c3noc(C4CC(=O)N(c5ccc(C)cc5)C4)n3)ccc21` (stereo not given), the RP-LC retention time was 880 s. In the case of `COc1cccc(CCC(=O)N2C[C@@H]3C[C@H](NC(=O)c4cccs4)[C@H]2C3)c1`, the RP-LC retention time is reported as 728 s. With `CSc1cccc(NC(=O)c2cn(C)nc2S(=O)(=O)N2CCC(C)CC2)c1` the RP-LC retention time was 1120 s. `COc1ccccc1NC(=O)Cn1cnc2onc(C)c2c1=O` showed an RP-LC retention time of 748 s. `CCCn1c(CCNC(=O)c2ccc(C#N)cc2)nc2cccnc21` showed an RP-LC retention time of 662 s. For `CCCNc1cc(N2CCC(CCC(=O)NCCc3cccs3)CC2)ncn1`, the RP-LC retention time was 662 s. In the case of `CC(C)n1cc(S(=O)(=O)Nc2ccc(F)c(F)c2)c2cccnc21`, the RP-LC retention time is reported as 936 s. In the case of `CCOC(=O)C1=C(O)C(=O)N(Cc2ccccc2)C1`, the RP-LC retention time is reported as 834 s. Work on `Cc1ccc(Nc2c(-c3ccc([N+](=O)[O-])cc3)nc3ccc(Cl)cn23)cc1` yielded an RP-LC retention time of 1100 s. `Cc1ccc2[nH]c(C(=O)NCC3CCCO3)cc2c1` (stereo not given) gave an RP-LC retention time of 776 s. `O=C(Nc1ccc(OCc2nnc(-c3ccccc3)o2)cc1)c1ccsc1` gave an RP-LC retention time of 864 s. In the case of `Cc1nc2cccnc2n1C1CCN(C(=O)Nc2ccccc2F)CC1`, the RP-LC retention time is reported as 605 s. `Cn1c(SCC(=O)c2ccccc2OC(F)F)nc2ccccc21` showed an RP-LC retention time of 808 s. With `Cc1ccc(C(=O)N2CCc3c(c(C(=O)N4CCCC(C(=O)NC5CC5)C4)nn3C)C2)cc1` (stereo not given) the RP-LC retention time was 661 s. `O=C(c1ccc(Cl)cc1)N1CCC(n2c(-c3ccoc3)nc3cccnc32)C1` (stereo not given) gave an RP-LC retention time of 782 s. Molecule `COc1ccccc1N1CCN(c2ccc3cc(S(=O)(=O)N4CCCC4)ccc3n2)CC1` has an RP-LC retention time of 855 s. For `O=C(Cn1c(=O)c2cc(-c3ccco3)nn2c2ncccc21)Nc1ccc(F)c(F)c1`, the RP-LC retention time was 843 s. Work on `COc1cc(-c2nnc(-c3cccc(S(=O)(=O)N4CCCC4)c3)o2)cc(OC)c1OC` yielded an RP-LC retention time of 916 s. In the case of `CCN1CCN(c2nc(F)c3c(c2F)S(=O)(=O)CCN3CC2CCCO2)CC1` (stereo not given), the RP-LC retention time is reported as 596 s. `CCCCn1c(=O)c2ccccc2n(Cc2nc(-c3ccc(CC)cc3)no2)c1=O` showed an RP-LC retention time of 1310 s. In the case of `CCCC(NC(=O)CCc1ccccc1OC)C(=O)Nc1nc2ccccc2[nH]1` (stereo not given), the RP-LC retention time is reported as 750 s. With `Cn1nc(C(=O)Nc2ccccc2)c2c1CCN(C(=O)Nc1ccccc1Br)C2` the RP-LC retention time was 903 s. `O=C(C1CCC1)N1CCc2c([nH]c3ccccc23)C1c1ccc(Cl)cc1` (stereo not given) showed an RP-LC retention time of 1230 s. `Cc1cccc(-n2cc(C(=O)OCc3cc(=O)n4ccccc4n3)c3ccccc3c2=O)c1` gave an RP-LC retention time of 906 s. `Cc1cc(N2CCC(NC(=O)Nc3cccc(Cl)c3F)C2=O)ccc1F` (stereo not given) gave an RP-LC retention time of 945 s. For `COc1ccccc1NC(=O)N1CCCC1c1cc(C(C)C)on1` (stereo not given), the RP-LC retention time was 950 s. Work on `COc1ccc(-c2noc(Cc3nnc(-c4cccc(Br)c4)o3)n2)cc1` yielded an RP-LC retention time of 1100 s. For `CCN1C(=O)C2(CCN(C(=O)c3c(C)noc3C)CC2)c2ccccc21`, the RP-LC retention time was 785 s. Molecule `CCc1nc(-c2cccc(-c3noc(CNC(=O)Cc4ccccc4)n3)c2)cs1` has an RP-LC retention time of 1000 s.

Source: the METLIN SMRT retention time set (Domingo-Almenara et al. 2019)
